Source: patent publication US12297201B2, “Substituted pyrrolo[2,3-d]pyrimidines as antimicrobials” (BIOVERSYS AG, priority 2018, dated 2025)

Assays:
[1] = system: Staphylococcus aureus (S. aureus) 11540 strain; test: standard microdilution assay to determine MIC against S. aureus; type: cell-based
Protocol: (§1) The in vitro activity of the compounds of the present disclosure can be determined. Antimicrobial testing is typically performed to determine the minimum inhibitory concentration (MIC). Minimum inhibitory concentrations (MICs) are determined by the microdilution method in a final volume of 100 μl according to protocols outlined by The Clinical and Laboratory Standards Institute (CLSI). Performance standards for reference strains are assessed within the same experimental design to maintain quality control. See, for example, Clinical Laboratory Standards Institute: Methods for dilution antimicrobial susceptibility tests for bacteria that grow aerobically M7-A8. Approved Standard-Eighth Edition. Wayne, Pa.: CLSI; December 2008; and Clinical Laboratory Standards Institute: Performance Standards for Antimicrobial Susceptibility Testing M100-S20; Approved Standard-Twentieth Edition. Wayne, Pa.: CLSI; June 2010. The compounds of the present disclosure were tested for antimicrobial activity. The Compounds 1-105 were run against Escherichia coli (E. coli) strain ATCC25922 and against Staphylococcus aureus (S. aureus) 11540 strain using a standard microdilution assay to determine minimum inhibitory concentrations (MICs). […] It will be recognized by one skilled in the art that the compounds can be assessed against other bacterial organisms and that the presentation of data for activity against Escherichia coli and Staphylococcus aureus are illustrative and in no way is intended to limit the scope of the present disclosure. The compounds of the present disclosure can be assayed against a range of other microorganisms depending upon the performance activity desired to be gathered. Furthermore, the “+” and “−” representation and the selection of a cutoff value of 16 micrograms/mL is also illustrative and in no way is intended to limit the scope of the present disclosure.

[2] = system: Escherichia coli (E. coli) strain ATCC25922; test: standard microdilution assay to determine MIC against E. coli; type: cell-based
Protocol: as §1

Row | Structure (SMILES) | MIC [1] | MIC [2]
1 | CC(C)CN1[C@H](CCOC(=N)N)CCC[C@H]1c1ccc(-n2cc3cc(-c4cc(CCC[C@H](C)N)cc(Cl)c4F)[nH]c3nc2=O)cc1 [Compound 10] | ≤ 16 µg/mL | ≤ 16 µg/mL
2 | COC(=O)CN1[C@H](CCOC(=N)N)CCC[C@H]1c1ccc(-n2cc3cc(-c4cc(CCC[C@H](C)N)cc(Cl)c4F)[nH]c3nc2=O)cc1 [Compound 11] | ≤ 16 µg/mL | ≤ 16 µg/mL
3 | C[C@H](N)CCCc1cc(Cl)c(F)c(-c2cc3cn(-c4ccc([C@@H]5CCC[C@@H](CCOC(=N)N)N5CCCO)cc4)c(=O)nc3[nH]2)c1 [Compound 12] | ≤ 16 µg/mL | ≤ 16 µg/mL
4 | C=CCN1[C@H](CCOC(=N)N)CCC[C@H]1c1ccc(-n2cc3cc(-c4cc(CCC[C@H](C)N)cc(Cl)c4F)[nH]c3nc2=O)cc1 [Compound 13] | ≤ 16 µg/mL | ≤ 16 µg/mL
5 | CCN1[C@H](CCOC(=N)N)CCC[C@H]1c1ccc(-n2cc3cc(-c4cc(CCC[C@H](C)N)cc(Cl)c4F)[nH]c3nc2=O)cc1 [Compound 14] | ≤ 16 µg/mL | ≤ 16 µg/mL
6 | C[C@H](N)CCCc1cc(Cl)c(F)c(-c2cc3cn(-c4ccc([C@@H]5CCC[C@@H](CCOC(=N)N)N5CCCSC(=N)N)cc4)c(=O)nc3[nH]2)c1 [Compound 15] | ≤ 16 µg/mL | ≤ 16 µg/mL
7 | C[C@H](N)CCCc1cc(Cl)c(F)c(-c2cc3cn(-c4ccc([C@@H]5CCC[C@@H](CCOC(=N)N)N5C5CC5)cc4)c(=O)nc3[nH]2)c1 [Compound 16] | ≤ 16 µg/mL | ≤ 16 µg/mL
8 | CN1[C@H](CCOC(=N)N)CCC[C@H]1c1ccc(-n2cc3cc(-c4cc(CCC[C@@H](N)C5CC5)cc(Cl)c4F)[nH]c3nc2=O)cc1 [Compound 17] | ≤ 16 µg/mL | ≤ 16 µg/mL
9 | C=C[C@H](N)CCCc1cc(Cl)c(F)c(-c2cc3cn(-c4ccc([C@@H]5CCC[C@@H](CCOC(=N)N)N5C)cc4)c(=O)nc3[nH]2)c1 [Compound 18] | ≤ 16 µg/mL | ≤ 16 µg/mL
10 | CN1[C@H](CCOC(=N)N)CCC[C@H]1c1ccc(-n2cc3cc(-c4cc(CCC[C@@H](N)COC(=N)N)cc(Cl)c4F)[nH]c3nc2=O)cc1 [Compound 19] | ≤ 16 µg/mL | ≤ 16 µg/mL
11 | COC(=N)NCC[C@@H]1CCC[C@@H](c2ccc(-n3cc4cc(-c5cc(CCC[C@H](C)N)cc(Cl)c5F)[nH]c4nc3=O)cc2)N1 [Compound 20] | ≤ 16 µg/mL | ≤ 16 µg/mL

Second part, the compound after the results:

Row | MIC [1] | MIC [2] | Structure (SMILES)
12 | ≤ 16 µg/mL | ≤ 16 µg/mL | C[C@H](N)CCCc1cc(Cl)c(F)c(-c2cc3cn(-c4ccc([C@@H]5CCC[C@@H](CCOC(=N)N)N5C)cc4)c(=O)nc3[nH]2)c1 [Compound 2]
13 | ≤ 16 µg/mL | ≤ 16 µg/mL | C[C@H](N)CCCc1cc(Cl)c(F)c(-c2cc3cn(-c4ccc([C@@H]5CCC[C@@H](CCOC(=N)N)N5CCCF)cc4)c(=O)nc3[nH]2)c1 [Compound 3]
14 | ≤ 16 µg/mL | ≤ 16 µg/mL | C[C@H](N)CCCc1cc(Cl)c(F)c(-c2cc3cn(-c4ccc([C@@H]5CCC[C@@H](CCOC(=N)N)N5CCC5CCOCC5)cc4)c(=O)nc3[nH]2)c1 [Compound 4]
15 | ≤ 16 µg/mL | ≤ 16 µg/mL | C[C@H](N)CCCc1cc(Cl)c(F)c(-c2cc3cn(-c4ccc([C@@H]5CCC[C@@H](CCOC(=N)N)N5CCF)cc4)c(=O)nc3[nH]2)c1 [Compound 5]
16 | ≤ 16 µg/mL | ≤ 16 µg/mL | COCCN1[C@H](CCOC(=N)N)CCC[C@H]1c1ccc(-n2cc3cc(-c4cc(CCC[C@H](C)N)cc(Cl)c4F)[nH]c3nc2=O)cc1 [Compound 6]
17 | ≤ 16 µg/mL | ≤ 16 µg/mL | CCCN1[C@H](CCOC(=N)N)CCC[C@H]1c1ccc(-n2cc3cc(-c4cc(CCC[C@H](C)N)cc(Cl)c4F)[nH]c3nc2=O)cc1 [Compound 7]
18 | ≤ 16 µg/mL | ≤ 16 µg/mL | CSCCN1[C@H](CCOC(=N)N)CCC[C@H]1c1ccc(-n2cc3cc(-c4cc(CCC[C@H](C)N)cc(Cl)c4F)[nH]c3nc2=O)cc1 [Compound 8]
19 | ≤ 16 µg/mL | ≤ 16 µg/mL | C[C@H](N)CCCc1cc(Cl)c(F)c(-c2cc3cn(-c4ccc([C@@H]5CCC[C@@H](CCOC(=N)N)N5CCC5CC5)cc4)c(=O)nc3[nH]2)c1 [Compound 9]
